Data from patent publication US7786141B2 (Vertex Pharmaceuticals Incorporated, priority 2004, dated 2010).

Legend:
[1] = biological target: T1, M1 muscarinic receptor (Homo sapiens, UniProt P11229); test: Functional mobilization of intracellular calcium (FLIPR) in M1-CHO cells; type: cell-based; conditions: Table 5; for Emax: 100% efficacy is the maximum response obtained with the Carbachol control; for EC50: CHO cells expressing M1, calcium mobilization
T1 construct: expressed in transfected cells; host or cells: CHO (M1-CHO)
T1 sequence (P11229 1-460): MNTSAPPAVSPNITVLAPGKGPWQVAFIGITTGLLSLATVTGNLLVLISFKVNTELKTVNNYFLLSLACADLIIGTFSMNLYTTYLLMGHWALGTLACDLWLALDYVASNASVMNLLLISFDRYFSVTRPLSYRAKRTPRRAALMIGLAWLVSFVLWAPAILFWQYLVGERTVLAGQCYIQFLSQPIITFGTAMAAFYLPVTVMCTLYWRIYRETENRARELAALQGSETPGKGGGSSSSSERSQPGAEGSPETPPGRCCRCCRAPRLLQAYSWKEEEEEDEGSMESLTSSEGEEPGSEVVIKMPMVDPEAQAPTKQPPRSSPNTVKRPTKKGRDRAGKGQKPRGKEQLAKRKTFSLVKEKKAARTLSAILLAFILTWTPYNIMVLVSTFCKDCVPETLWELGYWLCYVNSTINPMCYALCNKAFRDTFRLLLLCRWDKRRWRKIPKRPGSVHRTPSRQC
Outline: (§1)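 Two modes: direct compound addition for agonism, or 15 min compound pre-incubation (or co-application) before carbachol at EC80 for inhibition. Calcium signal from Fluo-3 AM or Calcium 3 dye in CHO cells, 1 mM probenecid, pH 7.4, read 60 sec at 488/540 nm; DMSO 0.5% final.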

[2] = biological target: T2, M4 muscarinic receptor (Homo sapiens, UniProt P08173); test: Functional mobilization of intracellular calcium (FLIPR) in M4-CHO cells; type: cell-based; conditions: Table 5; for Emax: 100% efficacy is the maximum response obtained with the Carbachol control; for EC50: CHO cells expressing M4, calcium mobilization
T2 construct: expressed in transfected cells; host or cells: CHO (M4-CHO)
T2 sequence (P08173 1-479): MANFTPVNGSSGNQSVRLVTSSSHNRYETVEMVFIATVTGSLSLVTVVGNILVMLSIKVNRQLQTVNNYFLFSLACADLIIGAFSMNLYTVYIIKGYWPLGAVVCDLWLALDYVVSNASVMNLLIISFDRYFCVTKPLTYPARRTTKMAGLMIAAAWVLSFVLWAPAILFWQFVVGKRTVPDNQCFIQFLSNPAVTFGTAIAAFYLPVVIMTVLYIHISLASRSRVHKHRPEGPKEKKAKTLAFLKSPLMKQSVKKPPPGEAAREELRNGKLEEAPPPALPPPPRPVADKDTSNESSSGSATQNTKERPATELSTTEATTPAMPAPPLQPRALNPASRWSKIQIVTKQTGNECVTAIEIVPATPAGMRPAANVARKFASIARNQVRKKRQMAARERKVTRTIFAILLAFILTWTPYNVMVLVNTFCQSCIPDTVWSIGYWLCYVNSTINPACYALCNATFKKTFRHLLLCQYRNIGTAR
Outline: as §1

SMILES: CN(C)C(=O)N1CC2(CCN(C[C@H]3CCN(c4nccs4)C3)CC2)c2cc(F)ccc21 [compound 1037]
- Emax [1]: 25 to 100%
- EC50 [1]: 2000 to 10000 nM
- Emax [2]: 25 to 100%
- EC50 [2]: < 2000 nM

SMILES: CN(C)C(=O)N1CC2(CCN(C[C@@H]3CCN(c4nccs4)C3)CC2)c2cc(F)ccc21 [compound 1038]
- Emax [1]: 25 to 100%
- EC50 [1]: 2000 to 10000 nM
- Emax [2]: 25 to 100%
- EC50 [2]: < 2000 nM

SMILES: CN(C)C(=O)N1CC2(CCN(C3CCN(c4ccccn4)CC3)CC2)c2cc(F)ccc21 [compound 1039]
- Emax [1]: 25 to 100%
- EC50 [1]: 2000 to 10000 nM
- Emax [2]: 25 to 100%
- EC50 [2]: < 2000 nM

SMILES: CN(C)C(=O)N1CC2(CCN(C3CCN(c4cccnc4)CC3)CC2)c2cc(F)ccc21 [compound 1040]
- Emax [1]: 25 to 100%
- EC50 [1]: < 2000 nM
- Emax [2]: 25 to 100%
- EC50 [2]: < 2000 nM

SMILES: CN(C)C(=O)N1CC2(CCN(C3CCN(c4ccsc4)CC3)CC2)c2cc(F)ccc21 [compound 1041]
- Emax [1]: 25 to 100%
- EC50 [1]: 2000 to 10000 nM
- Emax [2]: 25 to 100%
- EC50 [2]: 2000 to 10000 nM
